# Residues, ends and D or L forms follow the SMILES beside them.
# Molecular target: hT1R2/T1R3mosaicC (UniProt Q8TE23+Q925D8, A558R/A588V/A645S/A698V/A702T/A793V/A807V/C582S/C678S/D172E/D176A/D217E/E221Q/E725V/F541I/F612A/F622V/F695L/H728R/I617V/I706V/I740A/I803L/K555R/K565R/K818R/K827G/L560F/L684P/L735F/L823M/L825Q/M644L/M744T/N203E/N231A/N547G/N675D/P545F/P561R/P564S/Q195T/Q550E/Q611L/Q757R/Q795R/Q831P/R173L/R632Q/S168G/S205G/S228A/S576L/S595F/S610P/S635P/S637R/S679G/S717H/T199E/T542A/T663I/T694M/T813A/V197A/V198A/V573A/V584A/V718M/V723A/V729T/V738A/V805L/V812A/V821L/W599R/W676R/W824R/Y680C/Y794L)
# Sequence (Q8TE23 20-839, stated change not applied): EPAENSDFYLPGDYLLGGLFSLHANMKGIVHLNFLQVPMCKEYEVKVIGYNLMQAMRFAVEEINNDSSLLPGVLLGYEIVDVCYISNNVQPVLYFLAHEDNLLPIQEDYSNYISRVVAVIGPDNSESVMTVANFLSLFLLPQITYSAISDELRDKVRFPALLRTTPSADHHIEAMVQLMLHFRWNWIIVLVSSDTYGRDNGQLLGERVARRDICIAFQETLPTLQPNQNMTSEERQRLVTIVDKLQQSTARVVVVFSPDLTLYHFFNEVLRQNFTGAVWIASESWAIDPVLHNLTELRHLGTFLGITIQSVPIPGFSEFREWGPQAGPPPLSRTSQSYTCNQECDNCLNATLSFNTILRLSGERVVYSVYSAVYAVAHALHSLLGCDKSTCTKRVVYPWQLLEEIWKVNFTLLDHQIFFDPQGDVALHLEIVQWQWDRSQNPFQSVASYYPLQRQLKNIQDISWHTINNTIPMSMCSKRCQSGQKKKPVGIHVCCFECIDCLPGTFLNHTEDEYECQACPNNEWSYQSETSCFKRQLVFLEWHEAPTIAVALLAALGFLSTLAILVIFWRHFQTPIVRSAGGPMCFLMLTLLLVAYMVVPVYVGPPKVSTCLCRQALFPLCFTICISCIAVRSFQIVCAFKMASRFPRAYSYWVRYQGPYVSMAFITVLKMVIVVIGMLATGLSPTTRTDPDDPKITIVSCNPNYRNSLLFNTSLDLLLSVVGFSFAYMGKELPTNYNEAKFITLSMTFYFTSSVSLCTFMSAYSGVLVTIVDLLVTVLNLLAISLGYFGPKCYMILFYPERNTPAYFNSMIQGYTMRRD
# Sequence (Q925D8 with tags, fused parts or gaps with the stated changes limits assumed): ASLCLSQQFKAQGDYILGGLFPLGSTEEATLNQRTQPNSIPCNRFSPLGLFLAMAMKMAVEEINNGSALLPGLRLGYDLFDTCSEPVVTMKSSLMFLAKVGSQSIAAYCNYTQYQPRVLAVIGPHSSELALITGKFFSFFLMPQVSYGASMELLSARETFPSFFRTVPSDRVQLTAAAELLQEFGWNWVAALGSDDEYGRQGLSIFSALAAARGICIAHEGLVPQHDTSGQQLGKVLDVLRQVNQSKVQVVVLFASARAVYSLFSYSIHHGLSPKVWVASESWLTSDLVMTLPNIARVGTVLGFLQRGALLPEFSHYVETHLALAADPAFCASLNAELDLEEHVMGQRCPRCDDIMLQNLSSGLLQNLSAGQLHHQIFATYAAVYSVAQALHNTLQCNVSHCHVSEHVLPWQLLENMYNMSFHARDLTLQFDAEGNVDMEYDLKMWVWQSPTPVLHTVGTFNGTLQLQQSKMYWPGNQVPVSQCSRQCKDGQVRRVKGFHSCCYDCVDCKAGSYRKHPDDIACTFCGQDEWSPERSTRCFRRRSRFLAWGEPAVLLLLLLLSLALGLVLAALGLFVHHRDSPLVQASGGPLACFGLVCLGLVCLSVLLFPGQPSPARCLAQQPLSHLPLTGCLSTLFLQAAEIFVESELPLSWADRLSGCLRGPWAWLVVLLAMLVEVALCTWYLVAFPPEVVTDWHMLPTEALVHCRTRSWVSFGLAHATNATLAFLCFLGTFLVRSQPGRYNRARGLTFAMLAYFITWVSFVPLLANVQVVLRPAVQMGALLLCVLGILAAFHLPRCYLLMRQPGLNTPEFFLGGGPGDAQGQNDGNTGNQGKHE
# Conditions: Table 6; genes hT2/T1R3mC (hT1R2, T1R3mC); HEK293E cells
row,SMILES,S/N
1,"OC[C@H]1O[C@H](O[C@]2(CCl)O[C@H](CCl)[C@@H](O)[C@@H]2O)[C@H](O)[C@@H](O)[C@H]1Cl [Sucralose, sucralose]",5.7
2,"C[C@H](NC(=Nc1ccc(C#N)cc1)NCC(=O)O)c1ccccc1 [SC-45647, [3-[(S)-1-phenylethyl]-2-(4-cyanophenyl)guanidino]acetic acid]",5.4
3,"COc1ccc(CCC(=O)c2c(O)cc(O[C@@H]3O[C@H](CO)[C@@H](O)[C@H](O)[C@H]3O[C@@H]3O[C@@H](C)[C@H](O)[C@@H](O)[C@H]3O)cc2O)cc1O [NHDC, neohesperidin dihydrochalcone]",3.8
4,"COC(=O)[C@H](Cc1ccccc1)NC(=O)[C@H](CC(=O)O)NCCCc1ccc(OC)c(O)c1 [Advantame, advantame]",7.8
5,"COC(=O)[C@H](Cc1ccccc1)NC(=O)[C@H](CC(=O)O)NCCC(C)(C)C [Neotame, neotame]",7.1
6,"COC(=O)[C@H](Cc1ccccc1)NC(=O)[C@@H](N)CC(=O)O [Aspartame, aspartame] (HELM PEPTIDE1{D.F.[CO[*:1]]}$$$$V2.0)",4.5
7,"OC[C@H]1O[C@@](CO)(O[C@H]2O[C@H](CO)[C@@H](O)[C@H](O)[C@H]2O)[C@@H](O)[C@@H]1O [Sucrose, sucrose]",3.4
8,"CC1=CC(=O)NS(=O)(=O)O1 [Acesulfame K, acesulfame potassium]",3.2
9,"O=C1NS(=O)(=O)c2ccccc21.[Na] [Saccharin Na, sodium saccharin]",3.6
